Common to all, as to assay type: ADME
Series [1] deals with T1, Solute carrier family 15 member 2 (Homo sapiens, UniProt Q16348).
T1 sequence (Q16348 whole entry): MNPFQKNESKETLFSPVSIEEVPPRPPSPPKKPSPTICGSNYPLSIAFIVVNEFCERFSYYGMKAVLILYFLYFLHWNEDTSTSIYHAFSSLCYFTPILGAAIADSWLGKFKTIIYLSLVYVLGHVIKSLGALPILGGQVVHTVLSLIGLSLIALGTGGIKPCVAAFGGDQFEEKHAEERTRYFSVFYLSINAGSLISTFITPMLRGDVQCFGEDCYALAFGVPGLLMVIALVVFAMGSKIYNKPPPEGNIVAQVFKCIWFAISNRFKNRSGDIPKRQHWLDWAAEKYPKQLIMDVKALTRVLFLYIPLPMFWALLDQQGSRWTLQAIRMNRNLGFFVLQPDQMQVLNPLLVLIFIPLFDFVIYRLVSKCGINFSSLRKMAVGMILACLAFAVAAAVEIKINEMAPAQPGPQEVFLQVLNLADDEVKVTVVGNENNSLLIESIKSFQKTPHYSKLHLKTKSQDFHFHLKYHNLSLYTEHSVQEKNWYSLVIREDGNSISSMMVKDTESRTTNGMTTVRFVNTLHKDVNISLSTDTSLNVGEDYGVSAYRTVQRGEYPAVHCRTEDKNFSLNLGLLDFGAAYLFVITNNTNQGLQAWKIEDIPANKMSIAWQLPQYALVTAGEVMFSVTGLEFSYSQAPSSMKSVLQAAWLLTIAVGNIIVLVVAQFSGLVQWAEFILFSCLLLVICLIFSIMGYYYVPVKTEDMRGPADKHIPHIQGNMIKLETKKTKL
Description: Inhibitors of transporters of clinical importance in the absorption and disposition of drugs, PEPT2.

The target of series [2] is ATP-binding cassette sub-family C member 2 (Homo sapiens, UniProt Q92887). Description: Inhibitors of transporters of clinical importance in the absorption and disposition of drugs, MRP2.
Sequence of ATP-binding cassette sub-family C member 2 (Q92887 whole entry): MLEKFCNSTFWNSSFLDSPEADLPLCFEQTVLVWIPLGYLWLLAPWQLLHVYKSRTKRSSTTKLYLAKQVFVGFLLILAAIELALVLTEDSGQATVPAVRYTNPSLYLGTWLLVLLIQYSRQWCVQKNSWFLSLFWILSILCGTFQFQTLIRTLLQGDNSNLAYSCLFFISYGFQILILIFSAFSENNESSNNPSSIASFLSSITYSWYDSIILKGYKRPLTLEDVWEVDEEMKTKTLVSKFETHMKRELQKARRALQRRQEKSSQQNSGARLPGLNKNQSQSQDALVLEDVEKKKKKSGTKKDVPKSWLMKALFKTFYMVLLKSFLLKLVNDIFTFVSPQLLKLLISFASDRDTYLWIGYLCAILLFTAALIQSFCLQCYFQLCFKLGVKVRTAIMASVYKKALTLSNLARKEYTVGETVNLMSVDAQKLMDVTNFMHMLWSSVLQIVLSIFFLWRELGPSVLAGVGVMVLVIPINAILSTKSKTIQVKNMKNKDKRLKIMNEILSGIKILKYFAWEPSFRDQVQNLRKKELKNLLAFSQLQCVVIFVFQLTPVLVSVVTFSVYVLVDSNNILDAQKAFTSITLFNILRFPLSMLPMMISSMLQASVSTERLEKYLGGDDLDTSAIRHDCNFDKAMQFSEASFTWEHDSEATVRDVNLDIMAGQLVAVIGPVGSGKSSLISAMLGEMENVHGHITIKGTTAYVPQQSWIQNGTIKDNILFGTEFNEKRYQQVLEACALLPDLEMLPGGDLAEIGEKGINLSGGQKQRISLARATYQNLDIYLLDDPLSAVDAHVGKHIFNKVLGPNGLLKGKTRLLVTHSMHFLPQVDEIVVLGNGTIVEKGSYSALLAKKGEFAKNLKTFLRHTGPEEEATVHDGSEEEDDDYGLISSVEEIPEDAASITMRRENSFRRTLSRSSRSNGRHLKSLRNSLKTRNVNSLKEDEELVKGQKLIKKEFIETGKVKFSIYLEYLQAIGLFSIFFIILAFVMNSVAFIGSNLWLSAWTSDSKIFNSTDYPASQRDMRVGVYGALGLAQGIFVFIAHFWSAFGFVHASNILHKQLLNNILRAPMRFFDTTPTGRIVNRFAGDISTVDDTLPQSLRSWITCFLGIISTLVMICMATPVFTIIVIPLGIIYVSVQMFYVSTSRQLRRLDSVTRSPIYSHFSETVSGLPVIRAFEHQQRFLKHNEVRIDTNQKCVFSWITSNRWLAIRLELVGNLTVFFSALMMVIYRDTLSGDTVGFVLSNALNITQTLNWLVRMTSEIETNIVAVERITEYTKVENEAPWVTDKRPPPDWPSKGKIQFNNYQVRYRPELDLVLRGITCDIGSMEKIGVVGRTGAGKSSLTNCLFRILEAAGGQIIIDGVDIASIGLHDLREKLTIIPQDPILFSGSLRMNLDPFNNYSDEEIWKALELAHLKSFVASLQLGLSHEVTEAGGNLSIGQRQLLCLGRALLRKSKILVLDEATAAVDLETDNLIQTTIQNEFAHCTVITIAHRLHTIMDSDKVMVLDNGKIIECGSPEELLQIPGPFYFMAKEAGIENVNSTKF
Series [3] deals with ATP-binding cassette sub-family C member 3 (Homo sapiens, UniProt O15438). Description: Inhibitors of transporters of clinical importance in the absorption and disposition of drugs, MPR3.
Sequence of ATP-binding cassette sub-family C member 3 (O15438 whole entry): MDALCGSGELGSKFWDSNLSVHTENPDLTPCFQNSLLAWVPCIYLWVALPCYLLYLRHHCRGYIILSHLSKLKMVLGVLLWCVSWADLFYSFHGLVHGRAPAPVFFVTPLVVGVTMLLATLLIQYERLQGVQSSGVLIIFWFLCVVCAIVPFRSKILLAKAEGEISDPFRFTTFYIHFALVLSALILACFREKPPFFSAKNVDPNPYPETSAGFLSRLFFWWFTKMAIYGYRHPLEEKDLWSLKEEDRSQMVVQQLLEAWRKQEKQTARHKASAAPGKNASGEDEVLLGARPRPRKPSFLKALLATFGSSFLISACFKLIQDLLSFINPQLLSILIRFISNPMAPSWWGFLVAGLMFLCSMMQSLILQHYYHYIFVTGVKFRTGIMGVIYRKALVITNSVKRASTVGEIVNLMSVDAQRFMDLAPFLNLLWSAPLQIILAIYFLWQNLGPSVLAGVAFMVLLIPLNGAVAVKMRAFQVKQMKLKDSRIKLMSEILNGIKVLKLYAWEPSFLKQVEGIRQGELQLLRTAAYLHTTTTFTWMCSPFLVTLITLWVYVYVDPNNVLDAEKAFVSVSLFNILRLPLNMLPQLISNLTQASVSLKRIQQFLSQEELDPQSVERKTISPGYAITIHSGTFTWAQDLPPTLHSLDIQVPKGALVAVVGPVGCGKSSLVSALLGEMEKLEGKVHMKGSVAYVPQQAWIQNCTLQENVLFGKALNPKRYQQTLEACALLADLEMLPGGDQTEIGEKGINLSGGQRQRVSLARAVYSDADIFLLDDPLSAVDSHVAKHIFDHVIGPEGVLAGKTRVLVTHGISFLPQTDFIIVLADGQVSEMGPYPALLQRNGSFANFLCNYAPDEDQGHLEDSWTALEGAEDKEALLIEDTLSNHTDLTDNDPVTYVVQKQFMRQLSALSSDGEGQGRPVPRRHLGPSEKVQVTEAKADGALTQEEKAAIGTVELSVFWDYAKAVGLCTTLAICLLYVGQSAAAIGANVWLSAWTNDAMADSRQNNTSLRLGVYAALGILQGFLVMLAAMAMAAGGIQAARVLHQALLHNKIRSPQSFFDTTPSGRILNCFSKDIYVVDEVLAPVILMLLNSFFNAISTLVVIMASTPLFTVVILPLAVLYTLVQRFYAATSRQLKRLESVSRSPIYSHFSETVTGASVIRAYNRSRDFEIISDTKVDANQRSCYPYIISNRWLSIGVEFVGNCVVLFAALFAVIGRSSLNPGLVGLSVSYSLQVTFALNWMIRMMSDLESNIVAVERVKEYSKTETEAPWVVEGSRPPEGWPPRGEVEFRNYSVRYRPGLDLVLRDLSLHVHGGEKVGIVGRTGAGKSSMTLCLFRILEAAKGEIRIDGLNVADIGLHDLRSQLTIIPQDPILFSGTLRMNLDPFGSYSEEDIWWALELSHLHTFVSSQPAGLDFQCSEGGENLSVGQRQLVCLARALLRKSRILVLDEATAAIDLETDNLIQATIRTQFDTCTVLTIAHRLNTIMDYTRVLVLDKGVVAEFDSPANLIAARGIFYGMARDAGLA
The target in series [4] is T2, Broad substrate specificity ATP-binding cassette transporter ABCG2 (Homo sapiens, UniProt Q9UNQ0).
T2 sequence (Q9UNQ0 whole entry): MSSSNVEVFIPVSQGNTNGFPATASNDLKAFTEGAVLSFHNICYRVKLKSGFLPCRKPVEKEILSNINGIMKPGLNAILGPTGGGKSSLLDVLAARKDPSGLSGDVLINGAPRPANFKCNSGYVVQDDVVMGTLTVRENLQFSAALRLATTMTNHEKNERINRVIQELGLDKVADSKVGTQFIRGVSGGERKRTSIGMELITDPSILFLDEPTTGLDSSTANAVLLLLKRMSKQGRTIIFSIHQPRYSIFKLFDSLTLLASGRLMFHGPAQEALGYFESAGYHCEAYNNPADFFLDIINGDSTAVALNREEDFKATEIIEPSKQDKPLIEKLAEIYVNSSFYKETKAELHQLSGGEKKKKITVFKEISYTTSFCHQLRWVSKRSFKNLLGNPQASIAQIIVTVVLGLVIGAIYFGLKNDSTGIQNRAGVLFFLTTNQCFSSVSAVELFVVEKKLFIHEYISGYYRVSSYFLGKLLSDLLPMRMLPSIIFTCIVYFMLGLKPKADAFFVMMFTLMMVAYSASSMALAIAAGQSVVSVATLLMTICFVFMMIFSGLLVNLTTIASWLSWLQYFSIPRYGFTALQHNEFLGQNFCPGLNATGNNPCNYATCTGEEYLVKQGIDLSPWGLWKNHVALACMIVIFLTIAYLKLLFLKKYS
Description: Inhibitors of transporters of clinical importance in the absorption and disposition of drugs, BCRP.

In series [5] the target is T3, Organic anion transporter 3 (Homo sapiens, UniProt Q8TCC7).
T3 sequence (Q8TCC7 whole entry): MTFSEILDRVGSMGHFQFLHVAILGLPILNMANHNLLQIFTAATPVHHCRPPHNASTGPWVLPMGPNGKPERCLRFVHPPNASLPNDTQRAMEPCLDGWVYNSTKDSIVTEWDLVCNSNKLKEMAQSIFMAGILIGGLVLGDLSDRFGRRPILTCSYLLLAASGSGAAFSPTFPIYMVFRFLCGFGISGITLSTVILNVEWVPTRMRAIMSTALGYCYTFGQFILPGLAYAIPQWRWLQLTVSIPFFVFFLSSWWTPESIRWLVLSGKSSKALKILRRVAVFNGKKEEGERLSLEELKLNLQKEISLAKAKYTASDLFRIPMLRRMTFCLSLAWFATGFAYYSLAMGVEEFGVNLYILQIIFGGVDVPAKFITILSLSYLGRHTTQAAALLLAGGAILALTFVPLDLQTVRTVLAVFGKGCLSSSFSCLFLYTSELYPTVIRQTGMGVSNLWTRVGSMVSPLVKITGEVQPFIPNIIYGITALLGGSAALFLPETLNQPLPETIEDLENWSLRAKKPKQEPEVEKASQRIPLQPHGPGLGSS
Description: Inhibitors of transporters of clinical importance in the absorption and disposition of drugs, OAT3.

The target of series [6] is T4, Solute carrier organic anion transporter family member 1B1 (Homo sapiens, UniProt Q9Y6L6).
T4 sequence (Q9Y6L6 whole entry): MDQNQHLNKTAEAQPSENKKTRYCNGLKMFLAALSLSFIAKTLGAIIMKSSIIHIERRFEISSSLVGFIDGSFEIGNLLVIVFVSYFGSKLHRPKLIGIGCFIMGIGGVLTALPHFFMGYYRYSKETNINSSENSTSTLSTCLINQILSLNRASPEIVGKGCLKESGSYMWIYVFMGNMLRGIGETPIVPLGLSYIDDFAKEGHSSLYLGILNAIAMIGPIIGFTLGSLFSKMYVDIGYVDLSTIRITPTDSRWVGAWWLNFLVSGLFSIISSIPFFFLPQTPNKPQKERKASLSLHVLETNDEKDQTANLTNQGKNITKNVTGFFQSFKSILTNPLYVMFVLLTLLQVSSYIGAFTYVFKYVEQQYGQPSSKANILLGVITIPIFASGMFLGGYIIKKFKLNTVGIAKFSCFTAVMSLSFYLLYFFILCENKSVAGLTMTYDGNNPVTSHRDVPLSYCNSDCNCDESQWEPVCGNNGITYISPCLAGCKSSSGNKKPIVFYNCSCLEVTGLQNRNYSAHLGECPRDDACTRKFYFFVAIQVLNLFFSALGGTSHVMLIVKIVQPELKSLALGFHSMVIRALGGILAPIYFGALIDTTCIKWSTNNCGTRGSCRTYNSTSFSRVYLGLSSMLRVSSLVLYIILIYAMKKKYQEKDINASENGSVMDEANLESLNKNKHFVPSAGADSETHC
Description: Inhibitors of transporters of clinical importance in the absorption and disposition of drugs, OATP1B1.

The target of series [7] is T5, Solute carrier organic anion transporter family member 1B3 (Homo sapiens, UniProt Q9NPD5).
T5 sequence (Q9NPD5 whole entry): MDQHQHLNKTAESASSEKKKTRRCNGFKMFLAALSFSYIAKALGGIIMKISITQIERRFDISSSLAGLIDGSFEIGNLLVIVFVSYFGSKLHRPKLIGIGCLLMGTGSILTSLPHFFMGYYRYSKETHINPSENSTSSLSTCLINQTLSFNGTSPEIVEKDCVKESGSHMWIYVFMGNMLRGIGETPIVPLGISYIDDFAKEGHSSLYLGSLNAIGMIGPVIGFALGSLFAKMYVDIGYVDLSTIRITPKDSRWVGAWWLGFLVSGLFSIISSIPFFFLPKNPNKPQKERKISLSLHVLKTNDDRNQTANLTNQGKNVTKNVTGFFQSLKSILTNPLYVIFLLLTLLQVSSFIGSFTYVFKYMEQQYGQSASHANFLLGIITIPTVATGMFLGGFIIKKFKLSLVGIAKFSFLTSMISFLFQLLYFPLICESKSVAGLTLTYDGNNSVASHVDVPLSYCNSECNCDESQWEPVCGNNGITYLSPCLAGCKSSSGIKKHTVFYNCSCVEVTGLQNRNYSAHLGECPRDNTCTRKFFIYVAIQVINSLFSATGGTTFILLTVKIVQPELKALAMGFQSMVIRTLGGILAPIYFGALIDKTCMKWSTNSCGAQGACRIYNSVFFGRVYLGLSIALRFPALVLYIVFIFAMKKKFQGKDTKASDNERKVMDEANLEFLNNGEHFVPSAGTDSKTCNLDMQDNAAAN
Description: Inhibitors of transporters of clinical importance in the absorption and disposition of drugs, OATP1B3.

The target of series [8] is T6, Solute carrier organic anion transporter family member 1A2 (Homo sapiens, UniProt P46721).
T6 sequence (P46721 whole entry): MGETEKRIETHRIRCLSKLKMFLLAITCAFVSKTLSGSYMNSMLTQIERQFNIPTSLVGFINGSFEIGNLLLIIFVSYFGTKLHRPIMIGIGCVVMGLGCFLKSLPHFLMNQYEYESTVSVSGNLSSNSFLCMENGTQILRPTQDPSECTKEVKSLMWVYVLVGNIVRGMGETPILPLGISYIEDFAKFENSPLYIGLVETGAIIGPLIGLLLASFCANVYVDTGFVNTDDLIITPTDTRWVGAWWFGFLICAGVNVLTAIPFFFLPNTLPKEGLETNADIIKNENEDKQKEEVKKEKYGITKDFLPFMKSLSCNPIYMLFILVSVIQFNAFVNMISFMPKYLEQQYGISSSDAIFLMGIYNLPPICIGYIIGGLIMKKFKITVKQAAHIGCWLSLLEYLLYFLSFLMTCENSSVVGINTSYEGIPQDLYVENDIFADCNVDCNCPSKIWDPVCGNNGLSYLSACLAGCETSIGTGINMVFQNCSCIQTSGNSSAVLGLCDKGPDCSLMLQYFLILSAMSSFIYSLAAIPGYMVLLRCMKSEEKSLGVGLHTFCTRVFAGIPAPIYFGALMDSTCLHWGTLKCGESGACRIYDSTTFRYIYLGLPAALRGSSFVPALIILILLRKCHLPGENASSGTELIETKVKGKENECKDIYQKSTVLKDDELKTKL
Description: Inhibitors of transporters of clinical importance in the absorption and disposition of drugs, OATP1A2.

The source of these data is ChEMBL document CHEMBL1743141, “Membrane transporters in drug development” (Nat Rev Drug Discov, 2010).

As for `C[C@H](CSC(=O)c1ccccc1)C(=O)N1C[C@@H](Sc2ccccc2)C[C@H]1C(=O)O` [ZOFENOPRIL], in series [1], the Activity result was “transporter inhibitor”.
As to `CC(C)Nc1cccnc1N1CCN(C(=O)c2cc3cc(NS(C)(=O)=O)ccc3[nH]2)CC1` [DELAVIRDINE], the Activity result in series [2] and in series [3] was “transporter inhibitor” each time.
With `Nc1nc(=O)n([C@@H]2CS[C@H](CO)O2)cc1F` [EMTRICITABINE], the Activity result in series [2] and in series [3] was “transporter inhibitor” in each case.
As to `COc1ccc2c3c([nH]c2c1)[C@H](C=C(C)C)N1C(=O)[C@@H]2CCCN2C(=O)[C@@H]1C3` [FUMITREMORGIN], the Activity result in series [4] is listed as “transporter inhibitor”.
As to `CCCN(CCC)S(=O)(=O)c1ccc(C(=O)O)cc1` [PROBENECID], in series [5], the Activity entry is “transporter inhibitor”.
As to `O=C1Nc2ccc(Cl)cc2[C@@](C#CC2CC2)(C(F)(F)F)O1` [EFAVIRENZ], the Activity result in series [2] and in series [3] was “transporter inhibitor” throughout.
As for `CCC(=O)O[C@@H](O[P@](=O)(CCCCc1ccccc1)CC(=O)N1C[C@H](C2CCCCC2)C[C@H]1C(=O)O)C(C)C` [FOSINOPRIL], the Activity entry in series [1] is “transporter inhibitor”.
With `Cc1cccc(C)c1OCC(=O)N[C@@H](Cc1ccccc1)[C@@H](O)C[C@H](Cc1ccccc1)NC(=O)[C@H](C(C)C)N1CCCNC1=O` [LOPINAVIR], the Activity entry in series [6], in series [7] and in series [8] was “transporter inhibitor” in each case.
